Numbers after ± are expanded uncertainties.
Assay: mn = molality of the nth substance listed, in mol/kg
Details: 101 kPa, Liquid; for speed of sound: Sing-around technique in a fixed-path interferometer; for mass density: Vibrating tube method

NCC(=O)O [2-aminoacetic acid] + O
Details	mass density [kg/m3]	speed of sound [m/s]
288.15 K, m1 = 0.0303	1000.1 ± 0.11	1468.3 ± 1.3
288.15 K, m1 = 0.0407	1000.43 ± 0.11	1468.9 ± 1.3
288.15 K, m1 = 0.0487	1000.69 ± 0.11	1469.4 ± 1.3
288.15 K, m1 = 0.0549	1000.89 ± 0.11	1469.7 ± 1.3
288.15 K, m1 = 0.0649	1001.22 ± 0.11	1470.3 ± 1.3
288.15 K, m1 = 0.066	1001.25 ± 0.11	1470.3 ± 1.3
288.15 K, m1 = 0.0799	1001.7 ± 0.11	1471.1 ± 1.3
288.15 K, m1 = 0.0959	1002.22 ± 0.11	1472 ± 1.3
288.15 K, m1 = 0.1125	1002.76 ± 0.11	1472.9 ± 1.3
288.15 K, m1 = 0.1349	1003.48 ± 0.11	1474.1 ± 1.3
288.15 K, m1 = 0.1608	1004.3 ± 0.11	1475.5 ± 1.3
288.15 K, m1 = 0.1908	1005.26 ± 0.11	1477.2 ± 1.3
288.15 K, m1 = 0.2165	1006.07 ± 0.11	1478.6 ± 1.3
288.15 K, m1 = 0.2303	1006.51 ± 0.11	1479.4 ± 1.3
288.15 K, m1 = 0.2506	1007.15 ± 0.11	1480.5 ± 1.3
288.15 K, m1 = 0.2735	1007.87 ± 0.11	1481.8 ± 1.3
293.15 K, m1 = 0.0303	999.187 ± 0.11	1484.4 ± 1.3
293.15 K, m1 = 0.0407	999.52 ± 0.11	1484.9 ± 1.3
293.15 K, m1 = 0.0487	999.773 ± 0.11	1485.4 ± 1.3
293.15 K, m1 = 0.0549	999.972 ± 0.11	1485.7 ± 1.3
293.15 K, m1 = 0.0649	1000.29 ± 0.15	1486.2 ± 1.3
293.15 K, m1 = 0.066	1000.32 ± 0.12	1486.3 ± 1.3
293.15 K, m1 = 0.0799	1000.77 ± 0.11	1487 ± 1.3
293.15 K, m1 = 0.0959	1001.28 ± 0.11	1487.9 ± 1.3
293.15 K, m1 = 0.1125	1001.81 ± 0.11	1488.8 ± 1.3
293.15 K, m1 = 0.1349	1002.52 ± 0.11	1489.9 ± 1.3
293.15 K, m1 = 0.1608	1003.34 ± 0.11	1491.3 ± 1.3
293.15 K, m1 = 0.1908	1004.28 ± 0.11	1493 ± 1.3
293.15 K, m1 = 0.2165	1005.08 ± 0.11	1494.4 ± 1.3
293.15 K, m1 = 0.2303	1005.52 ± 0.11	1495.1 ± 1.3
293.15 K, m1 = 0.2506	1006.15 ± 0.11	1496.2 ± 1.3
293.15 K, m1 = 0.2735	1006.86 ± 0.11	1497.4 ± 1.3
298.15 K, m1 = 0.0303	–	1498.6 ± 1.2
298.15 K, m1 = 0.0407	998.344 ± 0.11	1499.1 ± 1.2
298.15 K, m1 = 0.0487	–	1499.5 ± 1.2
298.15 K, m1 = 0.0549	998.79 ± 0.11	1499.9 ± 1.2
298.15 K, m1 = 0.0649	999.104 ± 0.15	1500.4 ± 1.2
298.15 K, m1 = 0.066	999.138 ± 0.11	1500.4 ± 1.2
298.15 K, m1 = 0.0799	999.58 ± 0.11	1501.2 ± 1.2
298.15 K, m1 = 0.0959	1000.09 ± 0.11	1502 ± 1.2
298.15 K, m1 = 0.1125	1000.61 ± 0.11	1502.9 ± 1.2
298.15 K, m1 = 0.1349	1001.31 ± 0.11	1504 ± 1.2
298.15 K, m1 = 0.1608	1002.12 ± 0.11	1505.3 ± 1.2
298.15 K, m1 = 0.1908	1003.05 ± 0.11	1506.9 ± 1.2
298.15 K, m1 = 0.2165	1003.84 ± 0.11	1508.2 ± 1.2
298.15 K, m1 = 0.2303	1004.27 ± 0.11	1508.9 ± 1.2
298.15 K, m1 = 0.2506	1004.9 ± 0.11	1510 ± 1.2
298.15 K, m1 = 0.2735	1005.61 ± 0.11	1511.2 ± 1.2
303.15 K, m1 = 0.0303	996.608 ± 0.11	1510.9 ± 1.2
303.15 K, m1 = 0.0407	996.933 ± 0.11	1511.4 ± 1.2
303.15 K, m1 = 0.0487	–	1511.8 ± 1.2
303.15 K, m1 = 0.0549	997.375 ± 0.11	1512.2 ± 1.2
303.15 K, m1 = 0.0649	–	1512.7 ± 1.2
303.15 K, m1 = 0.066	–	1512.7 ± 1.2
303.15 K, m1 = 0.0799	998.158 ± 0.11	1513.4 ± 1.2
303.15 K, m1 = 0.0959	998.661 ± 0.11	1514.3 ± 1.2
303.15 K, m1 = 0.1125	999.18 ± 0.11	1515.1 ± 1.2
303.15 K, m1 = 0.1349	999.878 ± 0.11	1516.2 ± 1.2
303.15 K, m1 = 0.1608	1000.67 ± 0.11	1517.5 ± 1.2
303.15 K, m1 = 0.1908	1001.6 ± 0.11	1519 ± 1.2
303.15 K, m1 = 0.2165	1002.38 ± 0.11	1520.3 ± 1.2
303.15 K, m1 = 0.2303	1002.81 ± 0.11	1521 ± 1.2
303.15 K, m1 = 0.2506	1003.43 ± 0.11	1522 ± 1.2
303.15 K, m1 = 0.2735	1004.13 ± 0.11	1523.2 ± 1.2
308.15 K, m1 = 0.0303	994.983 ± 0.11	1521.5 ± 1.2
308.15 K, m1 = 0.0407	–	1522 ± 1.2
308.15 K, m1 = 0.0487	995.552 ± 0.11	1522.5 ± 1.2
308.15 K, m1 = 0.0549	–	1522.8 ± 1.2
308.15 K, m1 = 0.0649	–	1523.3 ± 1.2
308.15 K, m1 = 0.066	–	1523.3 ± 1.2
308.15 K, m1 = 0.0799	–	1524 ± 1.2
308.15 K, m1 = 0.0959	997.02 ± 0.11	1524.8 ± 1.2
308.15 K, m1 = 0.1125	997.536 ± 0.11	1525.6 ± 1.2
308.15 K, m1 = 0.1349	998.23 ± 0.11	1526.7 ± 1.2
308.15 K, m1 = 0.1608	999.021 ± 0.11	1528 ± 1.2
308.15 K, m1 = 0.1908	999.936 ± 0.11	1529.5 ± 1.2
308.15 K, m1 = 0.2165	1000.72 ± 0.11	1530.7 ± 1.2
308.15 K, m1 = 0.2303	1001.14 ± 0.11	1531.4 ± 1.2
308.15 K, m1 = 0.2506	1001.76 ± 0.11	1532.4 ± 1.2
308.15 K, m1 = 0.2735	1002.45 ± 0.11	1533.5 ± 1.2
313.15 K, m1 = 0.0303	993.159 ± 0.11	1530.6 ± 1.2
313.15 K, m1 = 0.0407	993.481 ± 0.11	1531.1 ± 1.2
313.15 K, m1 = 0.0487	993.725 ± 0.11	1531.5 ± 1.2
313.15 K, m1 = 0.0549	993.917 ± 0.11	1531.8 ± 1.2
313.15 K, m1 = 0.0649	994.224 ± 0.11	1532.3 ± 1.2
313.15 K, m1 = 0.066	994.257 ± 0.11	1532.3 ± 1.2
313.15 K, m1 = 0.0799	994.689 ± 0.11	1533 ± 1.2
313.15 K, m1 = 0.0959	995.187 ± 0.11	1533.8 ± 1.2
313.15 K, m1 = 0.1125	–	1534.6 ± 1.2
313.15 K, m1 = 0.1349	–	1535.6 ± 1.2
313.15 K, m1 = 0.1608	–	1536.9 ± 1.2
313.15 K, m1 = 0.1908	998.083 ± 0.11	1538.3 ± 1.2
313.15 K, m1 = 0.2165	–	1539.5 ± 1.2
313.15 K, m1 = 0.2303	999.28 ± 0.11	1540.2 ± 1.2
313.15 K, m1 = 0.2506	999.893 ± 0.11	1541.2 ± 1.2
313.15 K, m1 = 0.2735	1000.58 ± 0.11	1542.3 ± 1.2
